Test results as given in paper PMC3477139 (PLoS ONE, 2012).

What was measured:
[1] = biological target: T1, GLP-1R (native, rat insulinoma cell line INS-1E) (Rattus norvegicus, UniProt P32301); test: ERK activation (phospho-ERK Western blot) in INS-1E cells; assay type: cell-based; settings: single ligands, 5 min; much lower concentrations of GLP-1 7–36 amide required
T1 construct: the rat insulinoma cell line, INS-1E, with native expression of the GLP-1R; endogenous in cells; host or cells: INS-1E rat insulinoma cells (gift of Prof. C.B. Wollheim)
T1 sequence (P32301 22-463): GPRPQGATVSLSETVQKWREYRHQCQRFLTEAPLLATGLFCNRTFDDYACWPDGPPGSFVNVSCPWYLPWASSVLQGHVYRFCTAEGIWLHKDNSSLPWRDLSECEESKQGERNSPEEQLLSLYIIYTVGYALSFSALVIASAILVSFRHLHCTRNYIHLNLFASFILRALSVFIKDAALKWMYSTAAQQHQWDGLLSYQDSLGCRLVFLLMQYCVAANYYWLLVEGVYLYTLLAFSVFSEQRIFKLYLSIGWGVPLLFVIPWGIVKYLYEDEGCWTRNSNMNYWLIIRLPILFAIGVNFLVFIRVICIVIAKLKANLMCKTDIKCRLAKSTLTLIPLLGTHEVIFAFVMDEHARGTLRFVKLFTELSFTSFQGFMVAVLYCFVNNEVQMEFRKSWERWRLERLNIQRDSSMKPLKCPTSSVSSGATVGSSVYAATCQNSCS
Description: HEK-Flp-In cells with stable recombinant expression of the human GLP-1R (HEK-GLP-1R) were cultured in DMEM with high glucose supplemented with 10% FBS, 100 µg/ml streptomycin and 100 units/ml penicillin sulphate. These cells were originally generated by transfection of HEK-Flp-In cells (Invitrogen: Paisley, U.K.) with pcDNA5/FRT containing the human GLP-1R. […] INS-1E cells were kindly provided by Prof. C.B. Wollheim of the University of Geneva, Switzerland [19]. These cells were used between passages 65–90 and cultured in RPMI media containing 11.1 mM glucose, 5% heat-inactivated FBS, 100 µg/ml streptomycin, 100 units/ml penicillin sulphate, 100 units/ml neomycin, 50 µM β-mercaptoethanol, 10 mM HEPES and 1 mM sodium pyruvate. All cells were cultured at 37°C in a 5% CO2 humidified atmosphere and passaged at confluence.
(§1) Concentration-response curves were fitted using GraphPad Prism (GraphPad Software Inc., CA) using a standard four parameter logistic equation. All data are representative of n≥3 or are presented as mean+/±s.e.m., where n = 3 unless otherwise stated. Statistical analysis was by oneway ANOVA and where P<0.05, followed by Bonferroni's or Dunnett's multiple range test as indicated. Alternatively analysis was performed by Student's t-test. Where potency estimates are given these are pEC50 values (−log10 of the molar concentration giving 50% of the maximal response).

[2] = biological target: T2, human GLP-1R (Homo sapiens, UniProt P43220); test: Intracellular Ca2+ signaling in fluo-4-loaded HEK-GLP-1R cells; assay type: cell-based
T2 construct: expressed in transfected cells; vector pcDNA5/FRT
Description: as §1

[3] = test system: wild-type HEK293 cells; test: ERK activation in wild-type HEK293 cells; assay type: cell-based; settings: data not shown
Description: Cells grown to confluence on 24-well plates pre-coated with poly-D-lysine (0.1% w/v) were washed and equilibrated in KHB at 37°C (400 µl). Cells were challenged at 37°C in 400 µl KHB-BSA and reactions terminated by replacement of buffer with 100 µl ice-cold Laemmli sample buffer (62.5 mM Tris-HCl, pH 6.8, 2% w/v SDS, 10% v/v glycerol, 50 mM DTT and 0.1% bromophenol blue). Proteins (∼30 µg) were separated by 12% SDS-PAGE, transferred onto polyvinylidene fluoride membranes, blocked for 1 h in 5% (w/v) skimmed milk powder in TTBS (150 mM NaCl, 50 mM Tris, pH 7.5, 0.1% Tween-20) and incubated overnight at 4°C with anti-phospho-ERK antibody (1∶2000) or anti-S6 antibody (1∶20,000) in 3% BSA in TTBS. Blots were washed (3×10 min) in TTBS and incubated for 1 h with anti-mouse HRP conjugated secondary antibody (1∶1000 in blocking buffer). After washing in TTBS (3×10 min), blots were exposed to ECL detection reagents (Uptima-Interchim, Montlucon, France) according to the manufacturer's guidelines and bands visualised using Kodak Medical X-ray film (Wolf Laboratories Ltd, Pocklington, U.K.). The intensities of the immunoblot bands were determined using ImageJ.

[4] = test system: GLP-1R; settings: cited from earlier work
Description: Such proteolysis is thought to remove biological activity.

[5] = test system: adenylyl cyclase; test: cAMP generation by direct activation of adenylyl cyclase with forskolin; assay type: biochemical; settings: data not shown
Description: Generation of cAMP by cell membranes was determined based on previously published methods, [21]. Membranes were prepared from confluent cell monolayers grown in 80 cm^2 flasks. Cells were washed with 5 ml HBS (154 mM NaCl, 10 mM HEPES, pH 7.4, 37°C), detached using harvesting buffer (154 mM NaCl, 10 mM HEPES, 5.4 mM EDTA, pH 7.4, 37°C) and collected by centrifugation (200 g, 2 min, 4°C). The cell pellet was resuspended in 1 ml of homogenization buffer (10 mM HEPES, 10 mM EDTA, pH 7.4) and sonicated (Sonifier Ultrasonic Cell Disruptor; Branson, CT) at 30% of the maximal amplitude for 3×5 s at ∼30 s intervals before centrifugation (30,000 g, 4°C, 10 min). After removal of the supernatant, pellets were collected in resuspension buffer (10 mM HEPES, 0.1 mM EDTA, pH 7.4), protein concentration adjusted to 1 mg/ml and stored in aliquots at −80°C until assay. Generation of cAMP was determined in 100 µl containing: 10 mM HEPES, 12 mM MgCl2, 60 mM NaCl, 1.2 mM EDTA, 1.2% w/v BSA, 5% DMSO, 480 µM ATP, 2 mM IBMX, 10 µM GTP, 20 µg membrane and ligands as indicated. […]
The cAMP was extracted from either intact cell or membrane preparations using a method identical to that for extraction of Ins(1,4,5)P3 [22]. Levels of cAMP were then determined by a competitive radioreceptor assay using binding protein purified from bovine adrenal glands and related to cellular protein assessed by Bradford assay.

[6] = test system: GLP-1R; settings: unclear whether additivity or true potentiation; ref [33]; cited from earlier work
[7] = biological target: T2, human GLP-1R; test: ERK activation (phospho-ERK Western blot) in HEK-GLP-1R cells; assay type: cell-based; settings: compound 2 10 µM, 5 min
Description: as §1

T2 sequence (P43220 24-463): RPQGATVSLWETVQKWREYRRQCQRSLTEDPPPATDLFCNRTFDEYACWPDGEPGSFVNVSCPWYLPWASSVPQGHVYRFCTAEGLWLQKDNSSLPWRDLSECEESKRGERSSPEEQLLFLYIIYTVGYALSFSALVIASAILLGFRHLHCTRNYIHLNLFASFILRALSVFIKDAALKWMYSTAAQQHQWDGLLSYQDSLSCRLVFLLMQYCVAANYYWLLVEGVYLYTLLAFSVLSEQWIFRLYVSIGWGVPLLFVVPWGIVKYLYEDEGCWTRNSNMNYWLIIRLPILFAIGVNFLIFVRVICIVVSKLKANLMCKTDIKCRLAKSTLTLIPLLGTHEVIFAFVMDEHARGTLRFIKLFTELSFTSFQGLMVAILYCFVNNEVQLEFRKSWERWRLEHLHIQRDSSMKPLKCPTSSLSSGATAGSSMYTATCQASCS

## CC(C)(C)Nc1nc2cc(Cl)c(Cl)cc2nc1S(C)(=O)=O [compound 2, 6,7-dichloro-2-methylsulfonyl-3-N-tert-butylaminoquinoxaline]
[1]
  ERK activation (INS-1E): robust and approximately equivalent activation of ERK
[2]; compound 2, 10 µM
  fluorescence change sensitive to thapsigargin: did not cause an appreciable, thapsigargin-sensitive increase in fluorescence
[2]; compound 2, 100 µM, with/without thapsigargin (2 µM, 5 min)
  fluorescence change sensitive to thapsigargin: a proportion of the change in fluorescence in response to compound 2 was blocked by thapsigargin
[3]
  ERK activation in wild-type HEK293 cells: Neither GLP-1 9–36 amide, GLP-1 7–36 amide nor compound 2 increased ERK activation
[4]; ago-allosteric modulator, ref [15]
  effect at the GLP-1R (in words): not only enhancing affinity of the GLP-1R for GLP-1 but providing effective direct agonism
[4]; ref [7], [15]
  effect on affinity for GLP-1 and on its potency or intrinsic activity: modestly increases the affinity for GLP-1 it has little impact on potency or intrinsic activity
[4]; ref [16]
  interaction of compound 2 and GLP-1 7–36 amide on ERK activation: lack of interaction between compound 2 and GLP-1 7–36 amide on ERK activation
[5]
  effect on forskolin-stimulated cAMP generation: inability of compound 2 to influence cAMP generation
[6]
  effect on activity of GLP-1 9–36 amide: may increase the activity of GLP-1 9–36 amide
[7]
  ERK activation: response equivalent to the maximally effective concentration of GLP-1 7–36 amide (10 nM)
